Data taken from patent publication US20060287251A1, “Combination therapy for glycaemic control” (priority 2003, published 2006).

Test system: diet-induced obese (DIO) rats
Assay: Glycaemic control (OGTT) in diet-induced obese rats with impaired glucose tolerance
Type: in vivo, rat
Conditions: glutaminyl thiazolidine hydrochloride 60 mg/kg BID, Metformin 125 mg/kg BID
Description: Selectively bred male rats, 5-6 weeks of age, displaying enhanced likelihood of developing diet-induced obesity (DIO) are selected from the breeding colony. A total of 40 DIO animals are included in the study.
Upon entry to the experiment, rats are housed individually (1 rat/cage) in a 12/12 light-dark cyldle (light from 0600-1800 h) with controlled temperature conditions (22-24° C.). […] After one week of acclimatisation, 24 h food and water intake and body-weight is measured gravimetrically twice weekly (in the morning between 8-10 am). After 3 weeks of HF feeding, average daily food consumption is calculated for all rats. The average food intake comprises a platform from which a scheduled feeding regime is implemented. […]
This test is carried out at 8:00 AM on days 6 and 42. […] Blood samples are taken from an indwelling arterial catheter and P-glucose is measured on automated analyser (Roche Diagnostics) at time points −60, −30, 0, 15, 30, 60, 120, and 180 min after oral administration of 1 g/kg glucose (using 1 g/ml dH2O). […] P-insulin is measured at time points: 0, 15, 30, 60, 120 using an ultra-sensitive ELISA (Shibayagi,Japan).
All rats are equipped with intra-arterial catheters at day −7. […] All blood samples are taken in EDTA Vacutainer tubes and plasma glucose is measured together with total Cholesterol and triacylglycerol. […]

With `NC(=O)CC[C@H](N)C(=O)N1CCSC1` [glutaminyl thiazolidine] the oral glucose tolerance was “improved oral glucose tolerance”.
